Like-named read-outs stand apart in the source and are kept apart here.

We go through 2 compounds from US9113629B2, “4-amino-6-(4-substituted-phenyl)-picolinates and 6-amino-2-(4-substituted-phenyl)-pyrimidine-4-carboxylates and their use as herbicides” (DOW AGROSCIENCES LLC, priority 2013, dated 2015).

Series [1] concerns Key Broadleaf Weed and Crop Species. Nature of the series: Post-emergent Test II herbicidal activity (Table 5). The settings on record: post-emergence, 336 h, 14 days after application; for pest or weed control at 70 g/ha: application rate 70 g ai/ha. The series is classed as in vivo. A digest of the protocol: (§1)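 Greenhouse-grown plants at first or second true leaf stage were sprayed post-emergence with compound in acetone/DMSO-based aqueous spray containing crop oil concentrate and surfactant, at 187 L/ha, highest rate plus ½× to 1/16× dilutions. After 14 d, injury was scored visually versus untreated plants, 0 (none) to 100% (complete kill).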

For series [2], the system named is Key Grass and Sedge Weeds as well as Grass Crops. The series is described as follows: Post-emergent Test II herbicidal activity (Table 6). The series is classed as in vivo. The note with it: post-emergence, 336 h; for pest or weed control at 140 g/ha: application rate 140 g ai/ha; for pest or weed control at 70 g/ha: application rate 70 g ai/ha. A digest of the protocol:
as §1

[3] abbreviates: Triticum aestivum, TRZSS (wheat), read-out: Visual Growth Reduction (%) 14 Days After Application, TRZSS.
The mark [4] stands for this setting: CYPES: yellow nutsedge (Cyperus esculentus), read-out: Visual Growth Reduction (%) 14 Days After Application, CYPES.
The mark [5] stands for this setting: DIGSA: crabgrass (Digitaria sanguinalis), read-out: Visual Growth Reduction (%) 14 Days After Application, DIGSA.
[6] abbreviates: ECHCG: barnyardgrass (Echinochloa crus-galli), read-out: Visual Growth Reduction (%) 14 Days After Application, ECHCG.
Setting [7] is: ORYSA: rice (Oryza sativa), read-out: Visual Growth Reduction (%) 14 Days After Application, ORYSA.
[8] abbreviates: SETFA: giant foxtail (Setaria faberi), read-out: Visual Growth Reduction (%) 14 Days After Application, SETFA.
Setting [9] is: SORVU: grain sorghum (Sorghum vulgare), read-out: Visual Growth Reduction (%) 14 Days After Application, SORVU.
Setting [10] is: ZEAMX: maize, corn (Zea mays), read-out: Visual Growth Reduction (%) 14 Days After Application, ZEAMX.

Take `C#Cc1ccc(-c2nc(N)c(OC)c(C(=O)O)n2)cc1` [Compound 28]: the melting point (as a rule, the temperature, or range, at which the solid turns liquid) was 170.7 to 171.3 °C. The pest or weed control at 140 g/ha in series [1] (ABUTH: velvetleaf (Abutilon theophrasti), 140 g ai/ha, post-emergent, read-out: Visual Growth Reduction (%) 14 Days After Application ABUTH) fell in the range of 0 to 29%. Also, the pest or weed control at 140 g/ha in series [1] (AMARE: redroot pigweed (Amaranthus retroflexus), 140 g ai/ha, post-emergent, read-out: Visual Growth Reduction (%) 14 Days After Application AMARE) fell in the range of 95 to 100%. In addition, the pest or weed control at 140 g/ha in series [1] (BRSNN: oilseed-rape, canola (Brassica napus), 140 g ai/ha, post-emergent, read-out: Visual Growth Reduction (%) 14 Days After Application BRSNN) was in the range of 0 to 29%. Further, the pest or weed control at 140 g/ha in series [1] (CHEAL: lambsquarters (Chenopodium album), 140 g ai/ha, post-emergent, read-out: Visual Growth Reduction (%) 14 Days After Application CHEAL) was in the range of 95 to 100%. For the same compound, the pest or weed control at 140 g/ha in series [1] (EPHHL: wild poinsettia (Euphorbia heterophylla), 140 g ai/ha, post-emergent, read-out: Visual Growth Reduction (%) 14 Days After Application EPHHL) lay within 95 to 100%. Besides, the pest or weed control at 140 g/ha in series [1] (HELAN: sunflower (Helianthus annuus), 140 g ai/ha, post-emergent, read-out: Visual Growth Reduction (%) 14 Days After Application HELAN) is 85 to 94%. Besides, the pest or weed control at 140 g/ha in series [1] (VIOTR: wild pansy (Viola tricolor), 140 g ai/ha, post-emergent, read-out: Visual Growth Reduction (%) 14 Days After Application VIOTR) was in the range of 0 to 29%. In series [2] (setting [3]), the pest or weed control at 140 g/ha fell in the range of 0 to 29%. Besides, the pest or weed control at 140 g/ha in series [2] (setting [4]) lay within 0 to 29%. Besides, in series [2] (setting [5]), the pest or weed control at 140 g/ha fell in the range of 60 to 74%. For the same compound, the pest or weed control at 140 g/ha in series [2] (setting [6]) fell in the range of 0 to 29%. In addition, in series [2] (setting [7]), the pest or weed control at 140 g/ha was in the range of 0 to 29%. Besides, in series [2] (setting [8]), the pest or weed control at 140 g/ha lay in the range of 45 to 59%. Further, in series [2] (setting [9]), the pest or weed control at 140 g/ha was 0 to 29%. The pest or weed control at 140 g/ha in series [2] (setting [10]) lay within 60 to 74%.

`COC(=O)c1nc(-c2ccc(C(F)(F)F)c(F)c2)cc(N)c1Cl` [Compound 29, methyl 4-amino-3-chloro-6-(3-fluoro-4-(trifluoromethyl)phenyl)picolinate] displayed a melting point of 145 to 146 °C. The pest or weed control at 70 g/ha in series [1] (ABUTH: velvetleaf (Abutilon theophrasti), read-out: Visual Growth Reduction (%) 14 Days After Application, ABUTH) is 85 to 94%. In addition, the pest or weed control at 140 g/ha in series [1] (ABUTH: velvetleaf (Abutilon theophrasti), application rate 140 g ai/ha, read-out: Visual Growth Reduction (%) 14 Days After Application, ABUTH) lay within 85 to 94%. The pest or weed control at 70 g/ha in series [1] (AMARE: redroot pigweed (Amaranthus retroflexus), read-out: Visual Growth Reduction (%) 14 Days After Application, AMARE) was 60 to 74%. The pest or weed control at 140 g/ha in series [1] (AMARE: redroot pigweed (Amaranthus retroflexus), application rate 140 g ai/ha, read-out: Visual Growth Reduction (%) 14 Days After Application, AMARE) fell in the range of 60 to 74%. In addition, in series [1] (BRSNN: oilseed-rape, canola (Brassica napus), read-out: Visual Growth Reduction (%) 14 Days After Application, BRSNN), the pest or weed control at 70 g/ha fell in the range of 45 to 59%. Moreover, the pest or weed control at 140 g/ha in series [1] (BRSNN: oilseed-rape, canola (Brassica napus), application rate 140 g ai/ha, read-out: Visual Growth Reduction (%) 14 Days After Application, BRSNN) was in the range of 60 to 74%. In series [1] (CHEAL: lambsquarters (Chenopodium album), read-out: Visual Growth Reduction (%) 14 Days After Application, CHEAL), the pest or weed control at 70 g/ha is 95 to 100%. In addition, the pest or weed control at 140 g/ha in series [1] (CHEAL: lambsquarters (Chenopodium album), application rate 140 g ai/ha, read-out: Visual Growth Reduction (%) 14 Days After Application, CHEAL) is 95 to 100%. For the same compound, in series [1] (EPHHL: wild poinsettia (Euphorbia heterophylla), read-out: Visual Growth Reduction (%) 14 Days After Application, EPHHL), the pest or weed control at 70 g/ha lay within 95 to 100%. In addition, in series [1] (EPHHL: wild poinsettia (Euphorbia heterophylla), application rate 140 g ai/ha, read-out: Visual Growth Reduction (%) 14 Days After Application, EPHHL), the pest or weed control at 140 g/ha fell in the range of 95 to 100%. Moreover, in series [1] (HELAN: sunflower (Helianthus annuus), read-out: Visual Growth Reduction (%) 14 Days After Application, HELAN), the pest or weed control at 70 g/ha fell in the range of 85 to 94%. Moreover, the pest or weed control at 140 g/ha in series [1] (HELAN: sunflower (Helianthus annuus), application rate 140 g ai/ha, read-out: Visual Growth Reduction (%) 14 Days After Application, HELAN) lay in the range of 85 to 94%. Further, the pest or weed control at 70 g/ha in series [1] (VIOTR: wild pansy (Viola tricolor), read-out: Visual Growth Reduction (%) 14 Days After Application, VIOTR) was 0 to 29%. For the same compound, the pest or weed control at 140 g/ha in series [1] (VIOTR: wild pansy (Viola tricolor), application rate 140 g ai/ha, read-out: Visual Growth Reduction (%) 14 Days After Application, VIOTR) was 0 to 29%. In addition, in series [2] (setting [3]), the pest or weed control at 70 g/ha was 0 to 29% and the pest or weed control at 140 g/ha lay within 0 to 29%. Further, in series [2] (setting [4]), the pest or weed control at 70 g/ha was 30 to 44% and the pest or weed control at 140 g/ha was 45 to 59%. In series [2] (setting [5]), the pest or weed control at 70 g/ha lay in the range of 30 to 44% and the pest or weed control at 140 g/ha was 60 to 74%. In series [2] (setting [6]), the pest or weed control at 70 g/ha is 0 to 29% and the pest or weed control at 140 g/ha was 0 to 29%. In series [2] (setting [7]), the pest or weed control at 70 g/ha was in the range of 0 to 29% and the pest or weed control at 140 g/ha was in the range of 0 to 29%. In series [2] (setting [8]), the pest or weed control at 70 g/ha lay in the range of 0 to 29% and the pest or weed control at 140 g/ha was 0 to 29%. Moreover, in series [2] (setting [9]), the pest or weed control at 70 g/ha is 45 to 59% and the pest or weed control at 140 g/ha was 45 to 59%. For the same compound, in series [2] (setting [10]), the pest or weed control at 70 g/ha was in the range of 0 to 29% and the pest or weed control at 140 g/ha is 0 to 29%.
